Experimental data: patent US9284297B2, “Halofuginone analogs for inhibition of tRNA synthetases and uses thereof” (President and Fellows of Harvard College, priority 2008, dated 2016)

Assays:
[1] = test system: eIF2α phosphorylation and ATF4 protein levels in CD4+ CD25− T cells; assay: Amino acid response (AAR) pathway activation in T cells, western blot; type: cell-based, mice
Method: CD4+ CD25− T cells purified from wild type of GCN2−/− mice were activated through TCR for 4 hours in the presence of halofuginone (10 nM) or 9 (MAZ1310, 10 nM). Whole cell lysates were analyzed by SDS PAGE/Western blot and antibodies indicated.
Naïve T-cells were treated to stimulate the T-cell receptor (TCR) in the presence or absence of 10 nM halofuginone in the presence of 1 mM added amino acid, and then assayed for eIF2alpha activity phosphorylation by SDS PAGE/Western blot.
HF induced detectable eIF2α phosphorylation at 2.5 nM, and this effect plateaued at 5-10 nM HF (FIG. 7D). […] AAR activation was a general consequence of HF treatment; HF induced eIF2α phosphorylation, not only in T cells activated in Th17-priming conditions, but also in resting naïve T cells and T cells activated in ThN, Th1, Th2, and iTreg polarizing conditions (FIG. 7F). […] Thus, the rapid activation of the AAR pathway by HF could underlie both its selective inhibition of Th17 differentiation and its effects on fibroblasts (Pines and Nagler, Gen. Pharmacol. 30:445, 1998).
To delineate the stress response pathway activated by HF, the effects of amino acid starvation with those of tunicamycin (an inducer of ER stress) or HF treatment during T cell activation were compared.
Whole cell lysates were generated from T cells activated for the indicated times. For STAT3 and Smad2/3 western blots cells were harvested, washed in PBS and lysed in 50 mM Tris, pH 7.4, 0.1% SDS, 1% Triton-X100, 140 mM NaCl, 1 mM EDTA, 1 mM EGTA supplemented with protease inhibitors tablets (Roche, Germany), 1 mM NaF and 1 mM Na3VO4. For eIF2α and ATF4 western blots, cells were harvested as above and lysed in 50 mM Tris, pH 7.4, 2% SDS, 20% glycerol and 2 mM EDTA supplemented with protease and phosphatase inhibitors as above. All lysates were cleared via centrifugation and 15-30 μg of protein was resolved by SDS-PAGE. Protein was transferred to nitrocellulose membranes, blocked and blotted using specific antibodies. Antibodies used for western blot analysis were anti-phospho-Smad2, anti-STAT3 (pY705), anti-STAT3, anti-eIF2α^pS51, anti-eIF2α (all from Cell Signaling Technology, Danvers, Mass.). Anti-ATF4/CREB2 and anti-β-actin were purchased from Santa Cruz Biotechnology (Santa Cruz, Calif.). HRP-conjugated secondary antibodies were all purchased from Sigma, with the exception of HRP-conjugated anti-armenian hamster antibody (Jackson Immunoresearch, West Grove, Pa.).

[2] = test system: translation of luciferase RNA in rabbit reticulocyte lysate; assay: Translation of a luciferase RNA reporter in rabbit reticulocyte lysate; type: biochemical; set-up: key to Translational inhibition: “+++” vs. “++” vs. “+” in general denotes ˜4-fold differences in potency; “+++” vs. “++” vs. “+” in general denotes ˜4-fold differences in potency; “+++” vs. “++” vs. “+” in general denotes ˜4-fold differences in potency; “−” denotes no activity at any dose tested, up to 1000× the effective dose of halofuginone
Method: To distinguish these possibilities, the effect of halofuginone on protein translation was examined in an in vitro system (rabbit reticulocyte lysate) in which amino acids are already present at levels adequate to support protein synthesis. […] Distinct tRNA synthetases catalyze the charging of individual tRNA species with their cognate amino acid. To determine which tRNA synthetase is inhibited by halofuginone, several amino acid mixtures were added to the in vitro translation system to determine which, if any, could reverse the inhibition of translation by halofuginone (FIG. 3). […] To examine whether proline could specifically rescue the effect of halofuginone in intact cells, the ability of each amino acid to reverse the effect of halofuginone on eIF2alpha phosphorylation in T-cells or to prevent halofuginone inhibition of Th17 differentiation was tested (FIG. 4). […] Inhibition of EPRS with compounds of the current invention can inhibit Th17 differentiation.
Translation in vitro was performed using rabbit reticulocyte lysates and luciferase mRNA as template. Translation was measured as arbitrary units of luciferase activity using a luminometer based luminescence assay. Log scale presentation of background-subtracted data is shown.
Inhibition of translation of luciferase RNA by halofuginone and analogs thereof was measured as described in FIG. 3 above. Results are shown of translation of a luciferase RNA reporter in a rabbit reticulocyte lysate. “+++” vs. “++” vs. “+” in general denotes ˜4-fold differences in potency. “−” denotes no activity at any dose tested, up to 1000× the effective dose of halofuginone.

## O=C(CC1NCCCC1O)Cn1cnc2cc(Br)c(Cl)cc2c1=O (stereo not shown) [Compound 1, 7-bromo-6-chloro-3-[3-(3-hydroxy-2-piperidinyl)-2-oxopropyl]-4(3H)-quinazolinone]
[1]; 10 nM HF
  time to maximum eIF2α phosphorylation: ≤ 2 h
[1]; 10 nM halofuginone, 1 mM added amino acid
  rescue of eIF2alpha phosphorylation by added amino acid: blocked by added proline
[1]; 10 nM, 4 hours, T cells from wild type or GCN2−/− mice
  phosphorylation of Ser51 of eIF2alpha, GCN2 dependence: leads to phosphorylation of Ser51 of eif2alpha only in wild type cells and not in GCN2−/− cells
[1]; 4 hours-post TCR activation
  concentration at which eIF2α phosphorylation plateaued: 5 to 10 nM
  concentration inducing detectable eIF2α phosphorylation: 2.5 nM
  concentration with highest ATF4 expression levels: 5 to 10 nM
[1]; 4 hours, 10 nM HF or 1 μg/ml tunicamycin
  stress response pathway: eIF2α phosphorylation, ATF4 expression, Xbp-1 splicing: inducing eIF2α phosphorylation without promoting Xbp-1 splicing
[2]; 400 nM
  inhibition of translation of luciferase: 5-6 orders of magnitude
[2]; 400 nM halofuginone, 1-2 mM amino acids
  rescue of translation inhibition by added amino acids: Addition of proline, either alone or in combination with phenylaline and serine, rescues inhibition of translation
[2]; luciferase RNA reporter
  Translational inhibition: +++
